Consider 14 molecules from patent US4950686A, “Anti-mycoplasma agent” (Shionogi & Co., Ltd., priority 1986, dated 1990).

Converted amounts (≈) assume the structure as drawn. Structures can show the parent of a compound that is named as a salt. Where two headings read alike, the source gives them in different places.

In assay [1] the test system is Mycoplasma gallisepticum S6 (standard strain). Put plainly: Anti-mycoplasma activity in vitro (MIC, broth dilution), strain S6. In kind it is cell-based. Conditions: Mg S6, 37° C., 7 days. As for the experimental part:
(§1) (1) Anti-mycoplasma activity test in vitro
(§2) MIC values of each of Tropolones were measured on the following strains according to the following method.
(§3) (a) Mycoplasma gallisepticum
(§4) Medium: Chick PPLO broth supplemented with 20% equine serum (Eiken Kagaku Co., Ltd.)
(§5) Method: Broth dilution method
(§6) Inoculum: Culture incubated at 37° C. for 24-48 hr which is diluted with broth to 10^6 CCU/ml immediately before the use.
(§7) To 1.6 ml of the broth is added 0.2 ml of an agent which has been subjected to 2-fold dilution and then added 0.2 ml of inoculum, which is incubated at 37° C. for 7 days.

Assay [2] deals with Mycoplasma gallisepticum MR-1 (wild strain, tylosin-resistant). Put plainly: Anti-mycoplasma activity in vitro (MIC, broth dilution), strain MR-1. Conditions: Mg MR-1, 37° C., 7 days. It counts as cell-based. On the procedure:
as §1, §2, §3
MR-1 (wild strain, tylosin-resistant)
as §4, §5, §6, §7

In assay [3] the test system is Mycoplasma hyopneumoniae ST-11 (standard strain). As to the kind of experiment: Anti-mycoplasma activity in vitro (MIC, broth dilution), strain ST-11. It counts as cell-based. Conditions: Mh ST-11. As for the experimental part: as §1, §2
(b) Mycoplasma hyopneumoniae
Strain: ST-11 (standard strain)
Medium: 850 ml of Hanks' solution supplemented with 0.5% lactoalbumin, 50 ml of 25% yeast, 100 ml of equine serum and 4-6 ml of 0.5% phenol red (pH 7.4-7.6)
as §5
Inoculum: Culture which is incubated for 3-4 days and diluted 10 times with the broth if color of the broth becomes yellow then. If it needs over 4 days until color of the broth becomes yellow, it is further subcultured. This is diluted 10 times with the broth to give inoculum.
Assay is done in the same manner as in the above (a).

The subject of assay [4] is Mycoplasma gallisepticum T-7-T (wild strain, tylosin-resistant). Put plainly: Anti-mycoplasma activity in vitro (MIC, broth dilution), strain T-7-T. It counts as cell-based. Conditions: Mg T-7-T, 37° C., 7 days. On the procedure: as §1, §2, §3
T-7-T (wild strain, tylosin-resistant)
as §4, §5, §6, §7

The subject of assay [5] is Mycoplasma gallisepticum S6 (standard strain). As to the kind of experiment: Mycoplasma gallisepticum air-sac infection method in chicken, strain S6. In kind it is in vivo, Mycoplasma gallisepticum; SPF chicken (white leghorn). As for the experimental part: (2) Test of Effectiveness Mycoplasma gallisepticum air-sac infection method
Inoculation: To the right air-sac of 9 days old SPF chicken (a white leghorn) which has abstained from water and feed one day before is inoculated 0.20-0.25 ml/chicken of fresh mycoplasma culture incubated for 24-48 hr and diluted with broth (usually 100 times). The concentration in Table 2 is shown in a unit of mg/ml.
Medium: Chick PPLO broth supplemented with 15% equine serum (Eiken Kagaku Co., Ltd.)
Administration: A compound of this invention dissolved or suspended in the following solution is orally and forcibly administered once by a cannula immediately after the infection.
Anatomization and Isolation of Microorganism: The chickens are anatomized 5 days after the infection, and the right and left air sacs are investigated whether they are attacked with a disease or not. The change caused by the disease is represented in four degrees; -: no change, +: slight, ++: medium and +++: serious. Microorganism is isolated from the right and left air-sacs and the trachea by using a sterilized applicator.
Judgement: Judgement is done through an index of an air-sac disease and an index of a microorganism-isolation.
Index of an air-sac-disease: First, indexes in the right and left air-sacs are separately calculated according to the following formula;
{degree of disease (0-3)×chickens}/anatomized chickens
and the index is calculated by the following formula;
(index of right air-sac)×1+(index of left air-sac)×2
Index of a microorganism isolation:
P: chickens from the right air-sac of which microorganism is isolated,
Q: chickens from the trachea of which microorganism is isolated,
R: chickens from the left air-sac of which microorganism is isolated, and
S: chickens investigated.

[6] abbreviates: Mycoplasmoides gallisepticum, 168 h, read-out: MIC.
Where [7] appears, read: Mesomycoplasma hyopneumoniae, read-out: MIC.
Where [8] appears, read: 200 mg/kg × once oral, 20 mg/ml sol. b, inoculum 1.18 × 10^6.
[9] abbreviates: 100 mg/kg × once oral, 10 mg/ml sol. b, inoculum 7.7 × 10^5.
The mark [10] stands for this setting: 100 mg/kg × once oral, 10 mg/ml sol. b, inoculum 7.7 × 10^5, range 0-6.0.
The mark [11] stands for this setting: 100 mg/kg × once oral, 10 mg/ml sol. b, inoculum 7.7 × 10^5, range 0-9.0.

With `O=c1c(O)ccccc1O` [Compound 27, 7-Hydroxytropolone], the minimal inhibitory concentration (MIC) in assay [1] (setting [6]), in assay [2] (setting [6]), in assay [3] (setting [7]) and in assay [4] (setting [6]) was 12.5 µg/mL (≈ 90.5 µM) throughout.
As to Tropolone cobalt complex [Compound 3], the MIC in assay [1] stood at 1.56 µg/mL; in assay [2], 3.13 µg/mL; in assay [3], 0.78 µg/mL; in assay [4], 1.56 µg/mL.
As to `Cc1ccccc(O)c1=O` [Compound 28, 7-Methyltropolone], the minimal inhibitory concentration (MIC) in assay [1] (setting [6]) came out at 0.1 µg/mL (≈ 0.734 µM); in assay [2] (setting [6]) it was 0.2 µg/mL (≈ 1.47 µM); in assay [3] (setting [7]), 0.1 µg/mL (≈ 0.734 µM); in assay [4] (setting [6]), 0.39 µg/mL (≈ 2.86 µM).
With `O=c1cccccc1O` [Compound 12, Tropolone L-arginine salt], the minimal inhibitory concentration (MIC) in assay [1] stood at 3.13 µg/mL. In addition, in assay [5] (setting [8]), the “Change of air-sac, left: + (chickens)” value is recorded as 0; the “Change of air-sac, left: ++ (chickens)” value stood at 0; the “Change of air-sac, left: +++ (chickens)” value is listed as 0; the “Change of air-sac, left: - (chickens)” value is 5. Moreover, in assay [5] (setting [8]), the “Change of air-sac, right: + (chickens)” value turned out to be 1; the “Change of air-sac, right: ++ (chickens)” value was found to be 0; the “Change of air-sac, right: +++ (chickens)” value was 0; the “Change of air-sac, right: - (chickens)” value came out at 4. Besides, in assay [5] (setting [8]), the “Isolation, L (left air-sac)” value came to 0; the “Isolation, R (right air-sac)” value is given as 2; the “Isolation, T (trachea)” value turned out to be 1; the “Mycoplasma Isolated Chickens” value turned out to be 2. Also, the “Index of Isolation” value in assay [5] (200 mg/kg × once oral, 20 mg/ml sol. b, inoculum 1.18 × 10^6, range 0-6.0) came to 0.8. The “Index of Disease” value in assay [5] (200 mg/kg × once oral, 20 mg/ml sol. b, inoculum 1.18 × 10^6, range 0-9.0) stood at 0.2. This molecule also came in with a minimum inhibitory concentration (MIC) in assay [2] of 3.13 µg/mL. In addition, in assay [3], the MIC is 1.56 µg/mL. Also, the minimal inhibitory concentration (MIC) in assay [4] is 3.13 µg/mL.
Regarding Tropolone zinc salt [Compound 7], the MIC in assay [1] amounted to 1.56 µg/mL; in assay [2] it was 3.13 µg/mL; in assay [3] it was 0.78 µg/mL; in assay [4], 3.13 µg/mL.
Regarding `O=c1cccccc1[O-].O=c1cccccc1[O-].[Ni+2]` [Compound 4, Tropolone nickel complex], the minimum inhibitory concentration (MIC) in assay [1] is 1.56 µg/mL; in assay [2], 3.13 µg/mL; in assay [3] it was 0.78 µg/mL; in assay [4], 3.13 µg/mL.
As to `O=C(Oc1cccccc1=O)c1ccccc1` [Compound 14, O-Benzoyltropolone], the MIC in assay [1] (setting [6]) is 6.25 µg/mL (≈ 27.6 µM); in assay [2] (setting [6]) it was 6.25 µg/mL (≈ 27.6 µM); in assay [3] (setting [7]) it was 0.78 µg/mL (≈ 3.45 µM); in assay [4] (setting [6]), 6.25 µg/mL (≈ 27.6 µM).
As for `O=c1cccccc1O` [Compound 6, Tropolone magnesium salt], the MIC came to 1.56 µg/mL in assay [1], 1.56 µg/mL in assay [2], 0.78 µg/mL in assay [3] and 1.56 µg/mL in assay [4].
For `Cc1oc(=O)oc1COc1cccccc1=O` [Compound 25, O-{(2-Oxo-5-methyl-1,3-dioxol-4-yl)methyl}tropolone], the minimal inhibitory concentration (MIC) in assay [1] (setting [6]) was found to be 0.39 µg/mL (≈ 1.67 µM). In assay [5] (setting [9]), the “Change of air-sac, left: + (chickens)” value came to 0; the “Change of air-sac, left: ++ (chickens)” value is reported as 0; the “Change of air-sac, left: +++ (chickens)” value is 0; the “Change of air-sac, left: - (chickens)” value came to 8. For the same molecule, in assay [5] (setting [9]), the “Change of air-sac, right: + (chickens)” value was 1; the “Change of air-sac, right: ++ (chickens)” value is given as 0; the “Change of air-sac, right: +++ (chickens)” value came to 0; the “Change of air-sac, right: - (chickens)” value is listed as 7. Further, in assay [5] (setting [9]), the “Isolation, L (left air-sac)” value is 6; the “Isolation, R (right air-sac)” value is 5; the “Isolation, T (trachea)” value amounted to 7; the “Mycoplasma Isolated Chickens” value worked out at 7. In addition, the “Index of Isolation” value in assay [5] (setting [10]) is 4.38. For the same molecule, in assay [5] (setting [11]), the “Index of Disease” value is given as 0.13. The MIC in assay [2] (setting [6]) amounted to 0.39 µg/mL (≈ 1.67 µM). In assay [3] (setting [7]), the minimum inhibitory concentration (MIC) worked out at 0.2 µg/mL (≈ 0.854 µM). For the same molecule, in assay [4] (setting [6]), the minimum inhibitory concentration (MIC) worked out at 0.39 µg/mL (≈ 1.67 µM).
Regarding `O=c1cccccc1O` [Compound 10, Tropolone n-propylamine salt], the minimal inhibitory concentration (MIC) is 3.13 µg/mL in assay [1], 3.13 µg/mL in assay [2], 0.78 µg/mL in assay [3] and 3.13 µg/mL in assay [4].
Turning to `O=c1cccccc1O.O=c1cccccc1O.[Cu]` [Compound 2, Tropolone copper complex], the MIC was determined as 3.13 µg/mL in assay [1], 3.13 µg/mL in assay [2], 0.78 µg/mL in assay [3] and 3.13 µg/mL in assay [4].
For the molecule `O=c1cccccc1O` [Compound 8, Tropolone sodium salt], the MIC stood at 1.56 µg/mL in assay [1] (sodium salt), 1.56 µg/mL in assay [2] (sodium salt), 0.78 µg/mL in assay [3] (sodium salt) and 1.56 µg/mL in assay [4] (sodium salt).
Turning to Tropolone iron complex [Compound 1], the MIC came out at 0.78 µg/mL in assay [1], 0.56 µg/mL in assay [2], 0.39 µg/mL in assay [3] and 0.78 µg/mL in assay [4].
`COc1ccccc(O)c1=O` [Compound 26, 7-Methoxytropolone]: the minimum inhibitory concentration (MIC) in assay [1] (setting [6]) came out at 6.25 µg/mL (≈ 41.1 µM). In addition, in assay [5] (setting [9]), the “Change of air-sac, left: + (chickens)” value was determined as 0; the “Change of air-sac, left: ++ (chickens)” value is 0; the “Change of air-sac, left: +++ (chickens)” value is recorded as 0; the “Change of air-sac, left: - (chickens)” value stood at 8. Further, in assay [5] (setting [9]), the “Change of air-sac, right: + (chickens)” value was found to be 4; the “Change of air-sac, right: ++ (chickens)” value is recorded as 2; the “Change of air-sac, right: +++ (chickens)” value stood at 0; the “Change of air-sac, right: - (chickens)” value was 2. In assay [5] (setting [9]), the “Isolation, L (left air-sac)” value stood at 8; the “Isolation, R (right air-sac)” value turned out to be 5; the “Isolation, T (trachea)” value was found to be 8; the “Mycoplasma Isolated Chickens” value worked out at 8. For the same molecule, in assay [5] (setting [10]), the “Index of Isolation” value was 4.88. The “Index of Disease” value in assay [5] (setting [11]) was 1.00. Besides, the MIC in assay [2] (setting [6]) worked out at 6.25 µg/mL (≈ 41.1 µM). Besides, the minimal inhibitory concentration (MIC) in assay [3] (setting [7]) turned out to be 3.13 µg/mL (≈ 20.6 µM). Further, in assay [4] (setting [6]), the MIC worked out at 12.5 µg/mL (≈ 82.2 µM).
